{
  "source": "patent US7771753B2",
  "about": "“Topical formulations comprising ceramic hydroxyapatite particles” (Laboratory Skin Care, Inc., priority 1995, dated 2010)",
  "test_system": "microorganisms (bacteria, fungi, pseudomonas aeruginosa, pseudomonas capacia, staphylococcus aureus, escherichia coli, candida albicans, aspergillus niger …)",
  "test": "Antimicrobial effectiveness of the agent used in the formulation",
  "details": "salmonella typhimurium",
  "text": "A preferred chemical antimicrobial agent for use under the invention is Triclosan. This agent used in the formulation has been found effective against the whole genera of microorganisms, (for example: bacteria, fungi, pseudomonas aeruginosa, pseudomonas capacia, staphylococcus aureus, escherichia coli, candida albicans, aspergillus niger, salmonella typhimurium, etc . . . ). […] The antimicrobial chemical agent is normally present in an amount of from 0.001-5% by weight, preferably from 0.05-2% by weight, and more preferably from 0.1-1% by weight.",
  "data": [
    {"compound": "Oc1cc(Cl)ccc1Oc1ccc(Cl)cc1Cl", "note": "[Triclosan]", "values": [
      {"measurement": "effectiveness against microorganisms", "value": "effective"}
    ]}
  ]
}
